Consider 15 molecules from patent publication US7691889B2, “Antimycobacterial compounds” (Lupin Limited, priority 2002, dated 2010).

In brackets after ≈: the same amount, converted by molar mass. Read-outs that look alike come from different tables or passages of the source.

One data set concerns M. fortuitum. Briefly: In vitro agar dilution assay (MIC), M. fortuitum. The format is cell-based. The settings on record: Table II. In general terms: In agar dilution the substance is mixed into plates at graded concentrations.
For another data set, the system named is M. kansai. Briefly: In vitro agar dilution assay (MIC), M. kansai. The format is cell-based. The following applies: Table II.
A further data set is described as follows: Acute toxicity in mice. The format is in vivo. The settings on record: P. O.
Data set [1] deals with M. tuberculosis clinical isolates, sensitive. Briefly: microbe, parasite or virus in culture. The format is cell-based, Mycobacterium tuberculosis. The settings on record: for MIC against Clinical isolates Sensitive: Table I, agar dilution; for MIC: Mycobacterium tuberculosis.
Another data set deals with M. tuberculosis 27294. Nature of the data set: In vitro agar dilution assay (MIC), reference strain. The format is cell-based, Mycobacterium tuberculosis. The following applies: for MIC against M. tuberculosis 27294: Middlebrook 7H10; for MIC: Mycobacterium tuberculosis, 27294, Middlebrook 7H10, read-out: MIC against M. tuberculosis 27294.
The subject of data set [2] is M. tuberculosis ATCC 27294 infection. Briefly: Murine model of pulmonary tuberculosis. The following applies: for Mean Log10 No. of CFU Lung / Mean Log10 No. of CFU Spleen: 5 day/week for 4 weeks, mice; for Mean Log10 No. of reduction Lung / Mean Log10 No. of reduction Spleen: difference from early controls.
Setting [3] is: read-out: MIC against Clinical isolates Sensitive.

With `O=C(CCC(=O)c1ccc2ccccc2c1)NC[C@H]1CN(c2ccc([N+]3([O-])CCOCC3)c(F)c2)C(=O)O1` [Compound 30, (S)-N-[[3-(3-fluoro-4-morpholinylphenyl)-2-oxo-5-oxazolidinyl]methyl]-4-(4-2-naphthyl)-4-oxobutanamide-N-oxide], the “MIC M. fortuitum” value against M. fortuitum was above 16.0 µg/mL. Further, the “MIC M. kansai” value against M. kansai was 8.0 µg/mL (≈ 15.3 µM). Further, the “LD0 (acute toxicity)” value in “Acute toxicity in mice” is recorded as above 1000 mg/kg. The “MIC against Clinical isolates Sensitive” value in data set [1] is 0.5 µg/mL (≈ 0.959 µM). Further, the “MIC M. tuberculosis Sensitive” value in data set [1] (Table II) amounted to 0.50 µg/mL (≈ 0.959 µM). In the data set with M. tuberculosis 27294, the “MIC against M. tuberculosis 27294” value turned out to be 0.5 µg/mL (≈ 0.959 µM). In addition, the “Mean Log10 No. of CFU Lung” value in data set [2] (12.5 mg/kg by gavage) is 4.34; in data set [2] (25 mg/kg by gavage), 2.21; in data set [2] (50 mg/kg by gavage), 2.12. Also, the “Mean Log10 No. of CFU Spleen” value is recorded as 4.30 in data set [2] (12.5 mg/kg by gavage), 2.13 in data set [2] (25 mg/kg by gavage) and 2.09 in data set [2] (50 mg/kg by gavage). The “Mean Log10 No. of reduction Lung” value in data set [2] (12.5 mg/kg) was 0.20; in data set [2] (25 mg/kg), 2.30; in data set [2] (50 mg/kg), 2.40. Besides, the “Mean Log10 No. of reduction Spleen” value is 0.26 in data set [2] (12.5 mg/kg), 2.49 in data set [2] (25 mg/kg) and 2.53 in data set [2] (50 mg/kg).
`CCCc1ccc(C(=O)CCC(=O)NC[C@H]2CN(c3ccc(-c4nc[nH]n4)c(F)c3)C(=O)O2)c(C)c1` [Compound 46, (S)-N-[[3-(3-fluoro-4-(1,2,4-triazolyl)phenyl)-2-oxo-5-oxazolidinyl]methyl]-4-(2′-methyl-4-propylphenyl)-4-oxobutanamide]: the MIC in data set [1] (setting [3]) is 2 to 4 µg/mL (≈ 4.05 to 8.1 µM); in the data set on M. tuberculosis 27294, 2 µg/mL (≈ 4.05 µM).
Turning to `O=C(CCC(=O)c1cccs1)NC[C@H]1CN(c2ccc(-c3nc[nH]n3)c(F)c2)C(=O)O1` [Compound 47, (S)-N-[[3-(3-fluoro-4-(1,2,4-triazolyl)phenyl)-2-oxo-5-oxazolidinyl]methyl]-4-oxo-4-(2-thienyl)butanamide], the MIC in data set [1] (setting [3]) is 1 to 2 µg/mL (≈ 2.25 to 4.51 µM); in the data set with M. tuberculosis 27294, 1 µg/mL (≈ 2.25 µM).
Turning to `O=C(CCC(=O)c1ccc2ccccc2c1)NC[C@H]1CN(c2ccc(-c3nc[nH]n3)c(F)c2)C(=O)O1` [Compound 48, (S)-N-[[3-(3-fluoro-4-(1,2,4-triazolyl)phenyl)-2-oxo-5-oxazolidinyl]methyl]-4-(2-naphthyl)-4-oxobutanamide], the MIC in data set [1] (setting [3]) is 2 to 4 µg/mL (≈ 4.1 to 8.21 µM); in the data set with M. tuberculosis 27294, 2 µg/mL (≈ 4.1 µM).
Taken in the same sequence, the figures for `O=C(CCC(=O)c1ccc(Cl)cc1)NC[C@H]1CN(c2ccc(-c3nc[nH]n3)c(F)c2)C(=O)O1` [Compound 49, (S)-N-[[3-(3-fluoro-4-(1,2,4-triazolyl)phenyl)-2-oxo-5-oxazolidinyl]methyl]-4-(4-chlorophenyl)-4-oxobutanamide] were 4 to 16 µg/mL (≈ 8.48 to 33.9 µM) and 4 µg/mL (≈ 8.48 µM).
In the case of `CC(=O)Nc1ccc(C(=O)CCC(=O)NC[C@H]2CN(c3ccc(-c4nc[nH]n4)c(F)c3)C(=O)O2)cc1` [Compound 50, (S)-N-[[3-(3-fluoro-4-(1,2,4-triazolyl)phenyl)-2-oxo-5-oxazolidinyl]methyl]-4-(4-acetamidophenyl)-4-oxobutanamide], the MIC in data set [1] (setting [3]) is 2 to 4 µg/mL (≈ 4.04 to 8.09 µM); in the data set with M. tuberculosis 27294, 2 µg/mL (≈ 4.04 µM).
For `O=C(CCC(=O)c1cccs1)NC[C@H]1CN(c2ccc(N3CCCCC3)c(F)c2)C(=O)O1` [Compound 52, (S)-N-[[3-(3-fluoro-4-piperidylphenyl)-2-oxo-5-oxazolidinyl]methyl]-4-oxo-4-(2-thienyl)butanamide], in data set [1], the “MIC against Clinical isolates Sensitive” value was found to be 2 µg/mL (≈ 4.35 µM). For the same molecule, the “MIC against M. tuberculosis 27294” value in the data set with M. tuberculosis 27294 was found to be 2 µg/mL (≈ 4.35 µM).
Consider `CC(=O)Nc1ccc(C(=O)CCC(=O)NC[C@H]2CN(c3ccc(N4CCCCC4)c(F)c3)C(=O)O2)cc1` [Compound 54, (S)-N-[[3-(3-fluoro-4-piperidylphenyl)-2-oxo-5-oxazolidinyl]methyl]-4-(4-acetamidophenyl)-4-oxobutanamide], for which, in data set [1], the “MIC against Clinical isolates Sensitive” value lay in the range of 8 to 16 µg/mL. Also, the “MIC against M. tuberculosis 27294” value against M. tuberculosis 27294 worked out at 8 µg/mL (≈ 15.7 µM).
Consider `O=C(C=CC(=O)c1ccccc1)NC[C@H]1CN(c2ccc(N3CCCCC3)c(F)c2)C(=O)O1` [Compound 55, (S)-N-[[3-(3-fluoro-4-piperidylphenyl)-2-oxo-5-oxazolidinyl]methyl]-4-oxo-4-phenylbut-2-enamide], for which the “MIC against Clinical isolates Sensitive” value in data set [1] is above 16 µg/mL. For the same molecule, in the data set with M. tuberculosis 27294, the “MIC against M. tuberculosis 27294” value was above 16 µg/mL.
As for `CSc1ccc(C(=O)CCC(=O)NC[C@H]2CN(c3ccc(N4CCCC4)c(F)c3)C(=O)O2)cc1` [Compound 56, (S)-N-[[3-(3-fluoro-4-pyrrolidinylphenyl)-2-oxo-5-oxazolidinyl]methyl]-4-oxo-4-(4-thiomethylphenyl)butanamide], the “MIC against Clinical isolates Sensitive” value in data set [1] is above 16 µg/mL. For the same molecule, in the data set with M. tuberculosis 27294, the “MIC against M. tuberculosis 27294” value was above 16 µg/mL.
With `NNC(=O)c1ccncc1` [Isoniazid, reference compound], the MIC against M. fortuitum (Mycolicibacterium fortuitum) was above 16 µg/mL; in the data set with M. kansai it was above 16 µg/mL; in data set [1] (read-out: MIC M. tuberculosis Sensitive), 0.25 µg/mL (≈ 1.82 µM); in data set [1] (setting [3]) it was 0.12 to 0.25 µg/mL (≈ 0.875 to 1.82 µM); in the data set on M. tuberculosis 27294, 0.25 µg/mL (≈ 1.82 µM). Further, the entries for the “Mean Log10 No. of CFU Lung” value in data set [2] (12.5 mg/kg by gavage), in data set [2] (25 mg/kg by gavage) and in data set [2] (50 mg/kg by gavage) were 2.95, 2.11 and 2.03, respectively. The “Mean Log10 No. of CFU Spleen” value worked out at 2.94 in data set [2] (12.5 mg/kg by gavage), 2.11 in data set [2] (25 mg/kg by gavage) and 1.92 in data set [2] (50 mg/kg by gavage). In addition, the figures for the “Mean Log10 No. of reduction Lung” value in data set [2] (12.5 mg/kg), in data set [2] (25 mg/kg) and in data set [2] (50 mg/kg) were 1.57, 2.41 and 2.49, respectively. The “Mean Log10 No. of reduction Spleen” value in data set [2] (12.5 mg/kg) came out at 1.68; in data set [2] (25 mg/kg), 2.51; in data set [2] (50 mg/kg), 2.70.
For the molecule `CC(=O)NC[C@H]1CN(c2ccc(N3CCOCC3)c(F)c2)C(=O)O1` [Linezolid, (S)-N-[[3-[3-fluoro-4-(4-morpholinyl)phenyl]-2-oxo-5-oxazolidin-yl]methyl]-acetamide, reference compound], the MIC in data set [1] (setting [3]) was 0.25 to 0.5 µg/mL (≈ 0.741 to 1.48 µM); in the data set with M. tuberculosis 27294, 0.5 µg/mL (≈ 1.48 µM).
Turning to “(S)-N-[[3-(3-fluoro-4-(1,2,4-triazolyl)phenyl)-2-oxo-5-oxazolidinyl]methyl]-4-(2′,2′-dimethyl-4-ethylphenyl)-4-oxobutanamide [Compound 45]”, the “MIC against Clinical isolates Sensitive” value in data set [1] lay in the range of 2 to 4 µg/mL. The “MIC against M. tuberculosis 27294” value in the data set on M. tuberculosis 27294 was 2.0 µg/mL.
In the case of “(S)-N-[[3-(3-fluoro-4-(1,2,4-triazolyl)phenyl)-2-oxo-5-oxazolidinyl]methyl]-4-oxo-4-phenylbutanamide [Compound 40]”, in data set [1], the “MIC against Clinical isolates Sensitive” value was 1 to 2 µg/mL. Further, in the data set on M. tuberculosis 27294, the “MIC against M. tuberculosis 27294” value came out at 1 µg/mL.
Take “(S)-N-[[3-(3-fluoro-4-morpholinylphenyl)-2-oxo-5-oxazolidinyl]methyl]-4-[4-(2′,2′-dimethyl-4-ethylphenyl)-4-oxobutanamide [Compound 20]”: the “MIC against Clinical isolates Sensitive” value in data set [1] is 1 to 2 µg/mL. In addition, the “MIC against M. tuberculosis 27294” value against M. tuberculosis 27294 was found to be 1 µg/mL.
